From US4376768A, “Benzothiazine derivative” (priority 1980, dated 1983)
Read-outs that look alike come from different tables or passages of the source.

Legend:
in vivo [1] = conditions: for selectivity ratio: rat, in vivo, po
Experimental: (§1) Anti-inflammatory activity was tested as follows: Male rats of the Wistar strain were used in groups of 7. A test compound was suspended in a 0.2% carboxymethyl cellulose solution and orally administered in a dose of 0.5 ml/100 g of body weight. […] Three hours after injection of carrageenin, each rat was sacrificed by ether. The feet of both hind legs were amputated at the ankle joint and weighed to detect the difference in weight between both feet. Then, the ability of the test compound to suppress the carrageenin-induced edema was evaluated by comparing the foot weight difference of the test group with that of a control group (consisting of rats to which the solvent alone was administered). Specifically, the rate of suppression of the edema was calculated according to the following equation: [formula]
The incidence of gastric disorders in rats was tested as follows: Eight-weeks-old male rats of the Wistar strain were used in groups of 5 to 7. After they were fasted for 18 hours or more, a test compound was administered orally. Six hours later, each rat was sacrificed by decapitation. The stomach was removed, filled with 10 ml of physiological saline, and then fixed in 5% formalin. After about 10 minutes, the stomach was incised through the greater curvature and the presence or absence of gastric disorders (in particular, erosion) was examined by visual observation. According to Litchfield-Wilcoxon's method, the dose causing erosion to occur in 50% of the test animals, UD50, was calculated on an all-or-none basis.

[2] = system: carrageenin-induced edema; assay: Anti-inflammatory activity: suppression of carrageenin-induced edema in the rat hind foot; format: in vivo, male rats of the Wistar strain
in vivo [3] = format: in vivo; conditions: mouse, in vivo; Table 1; mice, oral, 7 days; read-out: Acute toxicity, LD50
mice = assay: in vivo; format: in vivo; conditions: Table 5; for Number of deaths / total number of test animals: p.o.; for LD50: observed for 7 days
[4] = Incidence of gastric disorders (erosion) in rats; format: in vivo, male rats of the Wistar strain; conditions: rat, in vivo, po
Excerpt: (§2) Six hours later, each rat was sacrificed by decapitation.

Safety margin LD50/ED50 = conditions: for Safety margin, LD50/ED50: Table 1
Experimental: as §1
A test compound was suspended in a 0.2% carboxymethyl cellulose solution and orally administered in a dose of 0.1 ml/10 g of body weight. […] The LD50 value was calculated on the basis of the death rates on the final day.

[5] = system: carrageenin-induced edema; assay: Duration of anti-inflammatory activity (carrageenin edema at varied premedication times); format: in vivo, male rats of the Wistar strain; conditions: for Rate of suppression of edema in rats premedicated at various times: Table 3, dose = ED50
Excerpt: The premedication time was defined as the time interval between the administration of a test compound and the injection of carrageenin.

[6] = prior art, in words; cited from earlier work
[7] = system: gastric disorders (erosion); assay: Incidence of gastric disorders (erosion) in rats; format: in vivo, male rats of the Wistar strain; conditions: Table 1; rats, oral
Excerpt: as §2

[8] = in words, among the compounds of Table 1

| SMILES | selectivity ratio (in vivo [1]) | Safety margin compared with indomethacin and diclofenac (Safety margin LD50/ED50; in words) | Rate of suppression of edema in rats premedicated at various times ([5]; premedication 1 hr.) [%] | Rate of suppression of edema in rats premedicated at various times ([5]; premedication 3 hr.) [%] | Rate of suppression of edema in rats premedicated at various times ([5]; premedication 6 hr.) [%] | Rate of suppression of edema in rats premedicated at various times ([5]; premedication 24 hr.) [%] | Rate of suppression of edema in rats premedicated at various times ([5]; premedication 48 hr.) [%] | LD50 (mice) | further results |
| --- | --- | --- | --- | --- | --- | --- | --- | --- | --- |
| Cc1cccc(NC(=O)C2C(=O)c3ccccc3S(=O)(=O)N2C)n1 (centres unmarked) [6-Methyl-2-pyridyl compound, N-(6-methyl-2-pyridyl)-3,4-dihydro-2-methyl-4-oxo-2H-1,2-benzothiazine-3-carboxamide 1,1-dioxide] | 1.1 | – | – | – | – | – | – | – | – |
| CN1C(C(=O)Nc2cccc(Cl)n2)C(=O)c2ccccc2S1(=O)=O (centres unmarked) [Compound of formula (1), N-(6-chloro-2-pyridyl)-3,4-dihydro-2-methyl-4-oxo-2H-1,2-benzothiazine-3-carboxamide 1,1-dioxide] | 30.8 | superior | 55.7 | 54.9 | 48.3 | 22.6 | 9.8 | – | inhibition in vivo at 2 mg/kg ([2]; Rattus norvegicus, po, 3 h, Table 2, 2.0 mg/kg, p.o., read-out: Rate of suppression of edema): 19.4%; inhibition in vivo at 4 mg/kg ([2]; Rattus norvegicus, po, 3 h, Table 2, 4.0 mg/kg, p.o., read-out: Rate of suppression of edema): 43.6%; inhibition in vivo at 8 mg/kg ([2]; Rattus norvegicus, po, 3 h, Table 2, 8.0 mg/kg, p.o., read-out: Rate of suppression of edema): 50.6%; inhibition in vivo at 16 mg/kg ([2]; Rattus norvegicus, po, 3 h, Table 2, 16.0 mg/kg, p.o., read-out: Rate of suppression of edema): 71%; ED50 ([2]; Rattus norvegicus, po, read-out: Dose producing 50% suppression, ED50, Table 2, carrageenin 1 h after compound, read 3 h later): 6.5 mg/kg; ED50 ([2]; Table 1, rat carrageenin edema, oral, read-out: Anti-inflammatory activity, ED50): 6.5 mg/kg; Anti-inflammatory activity ([2]; in words): potent and long-lasting; LD50 at 168 h (in vivo [3]): 4000 mg/kg; Number of deaths / total number of test animals (mice; 1,000 mg/kg): 0/5; Number of deaths / total number of test animals (mice; 3,000 mg/kg): 2/5; Number of deaths / total number of test animals (mice; 5,000 mg/kg): 3/5; TD50 at 6 h [4]: 200 mg/kg; selectivity ratio (Safety margin LD50/ED50; in vivo, po): 615; Degree of safety (Safety margin LD50/ED50; in words): very high degree of safety; Safety margin (Safety margin LD50/ED50; [8]): remarkably high; Rate of suppression of edema in rats premedicated at various times ([5]; premedication 12 hr.): 40.3%; Duration of anti-inflammatory activity ([5]; in words): excellent; Therapeutic index compared with indomethacin and diclofenac (in vivo [1]; in words): superior; Therapeutic index (in vivo [1]; [8]): remarkably high |
| O=C(O)Cc1ccccc1Nc1c(Cl)cccc1Cl [Diclofenac] | – | – | 45.9 | 24.7 | 17.6 | -1.2 | – | – | – |
| COc1ccc2c(c1)c(CC(=O)O)c(C)n2C(=O)c1ccc(Cl)cc1 [Indomethacin] | 1.2 | – | 49.4 | 57.6 | 29.4 | -3.5 | – | – | Safety margin, LD50/ED50 (Safety margin LD50/ED50): 3.7; Rate of suppression of edema in rats premedicated at various times ([5]; premedication 12 hr.): 18.8% |
| Cc1cc(NC(=O)C2C(=O)c3ccccc3S(=O)(=O)N2C)no1 (centres unmarked) [Isoxicam, 3,4-dihydro-2-methyl-N-(5-methyl-3-isoxazolyl)-4-oxo-2H-1,2-benzothiazine-3-carboxamide 1,1-dioxide] | – | superior | – | – | – | – | 1.1 | 5,000 mg/kg, p.o. | Anti-inflammatory activity compared with Piroxicam and Sudoxicam [6]: lower |
| CN1C(C(=O)Nc2ccccn2)C(=O)c2ccccc2S1(=O)=O (centres unmarked) [Piroxicam, 3,4-dihydro-2-methyl-4-oxo-N-(2-pyridyl)-2H-1,2-benzothiazine-3-carboxamide 1,1-dioxide] | – | superior | – | – | 40.0 | – | 1.7 | 490 mg/kg, p.o. | Anti-inflammatory activity [6]: potent and long-lasting |
| CN1C(C(=O)Nc2nccs2)C(=O)c2ccccc2S1(=O)=O (centres unmarked) [Sudoxicam, 3,4-dihydro-2-methyl-4-oxo-N-(2-thiazolyl)-2H-1,2-benzothiazine-3-carboxamide 1,1-dioxide] | 2.3 | superior | – | – | – | – | -2.4 | 500 mg/kg, p.o. | Gastric disorders, UD50 [7]: 11.8 mg/kg; Safety margin, LD50/ED50 (Safety margin LD50/ED50): 98; Anti-inflammatory activity [6]: potent and long-lasting; Degree of toxicity and incidence of gastric disorders compared with indomethacin and diclofenac [6]: not appreciably different; Therapeutic index compared with indomethacin and diclofenac (in vivo [1]; in words): superior |
